Test results as given in publication PMC5218480 (PLoS ONE, 2017).

Tested on: MV-4-11 cells
Assay: Gene expression microarray analysis (Affymetrix PrimeView) and GSEA
Format: cell-based, human
Parameters: RFU PODN (11730768_x_at) / Fold change /veh PODN (11730768_x_at) / RFU LINC00158 (11744669_a_at) / Fold change /veh LINC00158 (11744669_a_at) / RFU DUSP10 (11751237_a_at) / Fold change /veh DUSP10 (11751237_a_at) / RFU ID3 (11757404_x_at) / Fold change /veh ID3 (11757404_x_at) / RFU PLEKHG5 (11737974_s_at) / Fold change /veh PLEKHG5 (11737974_s_at) / RFU LRRC4B (11730491_at) / Fold change /veh LRRC4B (11730491_at) / RFU GIMAP4 (11747438_a_at) / Fold change /veh GIMAP4 (11747438_a_at) / RFU KRT8 (11758183_x_at) / Fold change /veh KRT8 (11758183_x_at) / RFU CNN1 (11734310_a_at) / Fold change /veh CNN1 (11734310_a_at) / RFU VPS37D (11726825_at) / Fold change /veh VPS37D (11726825_at) / RFU C10orf10 (11716522_x_at) / Fold change /veh C10orf10 (11716522_x_at) / RFU KIR2DL2 /// KIR2DL4 /// KIR2DL5A /// KIR2DL5B /// KIR2DS1 /// KIR2DS2 /// KIR2DS3 /// KIR2DS4 /// KIR3DL3 /// KIR3DL3 /// KIR3DS1 (11738374_at) / Fold change /veh KIR2DL2 /// KIR2DL4 /// KIR2DL5A /// KIR2DL5B /// KIR2DS1 /// KIR2DS2 /// KIR2DS3 /// KIR2DS4 /// KIR3DL3 /// KIR3DL3 /// KIR3DS1 (11738374_at) / RFU C1QL1 (11718748_at) / Fold change /veh C1QL1 (11718748_at) / RFU TMPRSS4 (11747572_a_at) / Fold change /veh TMPRSS4 (11747572_a_at) / RFU HAMP (11756126_x_at) / Fold change /veh HAMP (11756126_x_at) / RFU RNFT2 (11725882_a_at) / Fold change /veh RNFT2 (11725882_a_at) / RFU NR4A2 (11747474_a_at) / Fold change /veh NR4A2 (11747474_a_at) / RFU ABCC12 (11746883_a_at) / Fold change /veh ABCC12 (11746883_a_at) / RFU TMEM136 (11760407_x_at) / Fold change /veh TMEM136 (11760407_x_at) / RFU CLDN22 /// WWC2 (11732394_at) / Fold change /veh CLDN22 /// WWC2 (11732394_at) / RFU HLA-DPB1 (11760878_x_at) / Fold change /veh HLA-DPB1 (11760878_x_at) / RFU SPINT1 (11716480_a_at) / Fold change /veh SPINT1 (11716480_a_at) / RFU GAP43 (11754022_s_at) / Fold change /veh GAP43 (11754022_s_at) / RFU A4GNT (11735810_at) / Fold change /veh A4GNT (11735810_at) / RFU PRB3 (11715151_x_at) / Fold change /veh PRB3 (11715151_x_at) / RFU TUBB4B (11761932_at) / Fold change /veh TUBB4B (11761932_at) / RFU CAPN14 (11732068_a_at) / Fold change /veh CAPN14 (11732068_a_at) / RFU TMCC2 (11721928_a_at) / Fold change /veh TMCC2 (11721928_a_at) / RFU IRGQ (11745062_a_at) / Fold change /veh IRGQ (11745062_a_at) / RFU FAM174B (11720279_a_at) / Fold change /veh FAM174B (11720279_a_at) / RFU TMPRSS4 (11748680_a_at) / Fold change /veh TMPRSS4 (11748680_a_at) / RFU FAM212B (11763350_a_at) / Fold change /veh FAM212B (11763350_a_at) / RFU PLEKHG5 (11743358_a_at) / Fold change /veh PLEKHG5 (11743358_a_at) / RFU ZSCAN30 (11745921_a_at) / Fold change /veh ZSCAN30 (11745921_a_at) / RFU CMKLR1 (11741424_a_at) / Fold change /veh CMKLR1 (11741424_a_at) / RFU LOC101060620 /// MAPK8IP1 (11723275_at) / Fold change /veh LOC101060620 /// MAPK8IP1 (11723275_at) / RFU SPTSSB (11747773_x_at) / Fold change /veh SPTSSB (11747773_x_at) / RFU PRSS12 (11739890_at) / Fold change /veh PRSS12 (11739890_at) / RFU BIN1 (11741810_x_at) / Fold change /veh BIN1 (11741810_x_at) / RFU WNT11 (11732464_a_at) / Fold change /veh WNT11 (11732464_a_at) / RFU C10orf10 (11716521_a_at) / Fold change /veh C10orf10 (11716521_a_at) / RFU C5orf56 (11738089_at) / Fold change /veh C5orf56 (11738089_at) / RFU CYB561 (11721691_x_at) / Fold change /veh CYB561 (11721691_x_at) / RFU ANKRD19P (11752326_a_at) / Fold change /veh ANKRD19P (11752326_a_at) / RFU OR2T12 /// OR2T33 /// OR2T8 (11738714_s_at) / Fold change /veh OR2T12 /// OR2T33 /// OR2T8 (11738714_s_at) / RFU VCAN (11748164_a_at) / Fold change /veh VCAN (11748164_a_at) / RFU JSRP1 (11732532_at) / Fold change /veh JSRP1 (11732532_at) / RFU KRTAP10-11 (11738290_x_at) / Fold change /veh KRTAP10-11 (11738290_x_at) / RFU MYO3A (11730013_a_at) / Fold change /veh MYO3A (11730013_a_at) / RFU EBF3 (11725865_a_at) / Fold change /veh EBF3 (11725865_a_at) / RFU CAMK2N1 (11719241_x_at) / Fold change /veh CAMK2N1 (11719241_x_at) / RFU C5orf56 (11738088_a_at) / Fold change /veh C5orf56 (11738088_a_at) / RFU OLFML3 (11715873_a_at) / Fold change /veh OLFML3 (11715873_a_at) / RFU LOC100653217 /// NTM (11731650_a_at) / Fold change /veh LOC100653217 /// NTM (11731650_a_at) / RFU MAPK11 (11762145_a_at) / Fold change /veh MAPK11 (11762145_a_at) / RFU FIZ1 (11724087_x_at) / Fold change /veh FIZ1 (11724087_x_at) / RFU OASL (11726364_x_at) / Fold change /veh OASL (11726364_x_at) / RFU SOX15 (11748057_x_at) / Fold change /veh SOX15 (11748057_x_at) / RFU CD79A (11719716_a_at) / Fold change /veh CD79A (11719716_a_at) / RFU HIST1H1D (11736915_at) / Fold change /veh HIST1H1D (11736915_at) / RFU CASKIN2 (11723855_a_at) / Fold change /veh CASKIN2 (11723855_a_at) / RFU LOC730098 (11760151_x_at) / Fold change /veh LOC730098 (11760151_x_at) / RFU OR4N2 (11742367_at) / Fold change /veh OR4N2 (11742367_at) / RFU PRRT2 (11749266_a_at) / Fold change /veh PRRT2 (11749266_a_at) / RFU SNX32 (11753110_a_at) / Fold change /veh SNX32 (11753110_a_at) / RFU CDHR5 (11726645_a_at) / Fold change /veh CDHR5 (11726645_a_at) / RFU RCAN1 (11760418_a_at) / Fold change /veh RCAN1 (11760418_a_at) / RFU FAM167A (11723789_a_at) / Fold change /veh FAM167A (11723789_a_at) / RFU FAM26E (11764081_at) / Fold change /veh FAM26E (11764081_at) / RFU ISYNA1 (11749810_s_at) / Fold change /veh ISYNA1 (11749810_s_at) / RFU ACY1 (11761880_at) / Fold change /veh ACY1 (11761880_at) / RFU 11764098_at / Fold change /veh 11764098_at / RFU SAMD14 (11745864_x_at) / Fold change /veh SAMD14 (11745864_x_at) / RFU NPB (11741838_a_at) / Fold change /veh NPB (11741838_a_at) / RFU TMPRSS6 (11731388_a_at) / Fold change /veh TMPRSS6 (11731388_a_at) / RFU KRTAP10-2 (11738614_at) / Fold change /veh KRTAP10-2 (11738614_at) / RFU ARHGAP8 /// PRR5-ARHGAP8 (11727945_x_at) / Fold change /veh ARHGAP8 /// PRR5-ARHGAP8 (11727945_x_at) / RFU KRTAP5-7 /// NADSYN1 (11734609_at) / Fold change /veh KRTAP5-7 /// NADSYN1 (11734609_at) / RFU RASL12 (11751679_a_at) / Fold change /veh RASL12 (11751679_a_at) / RFU CDKN2B (11736163_a_at) / Fold change /veh CDKN2B (11736163_a_at) / RFU PRF1 (11729649_at) / Fold change /veh PRF1 (11729649_at) / RFU, ZNF638 /// ZNF638-IT1 / Fold change vs veh, ZNF638 /// ZNF638-IT1 / RFU, PANK3 / Fold change vs veh, PANK3 / RFU, SH3YL1 / Fold change vs veh, SH3YL1 / RFU, ZEB2 / Fold change vs veh, ZEB2 / RFU, NRIP1 / Fold change vs veh, NRIP1 / RFU, PTTG1IP / Fold change vs veh, PTTG1IP / RFU, CAPN2 / Fold change vs veh, CAPN2 / RFU, MED14 / Fold change vs veh, MED14 / RFU, SNORA58 / Fold change vs veh, SNORA58 / RFU, C1orf63 / Fold change vs veh, C1orf63 / RFU, LRRFIP1 / Fold change vs veh, LRRFIP1 / RFU, NDUFAF7 / Fold change vs veh, NDUFAF7 / RFU, SLC12A2 / Fold change vs veh, SLC12A2 / RFU, IBTK / Fold change vs veh, IBTK / RFU, ESF1 / Fold change vs veh, ESF1 / Fold change vs veh, TMEM50B / RFU, TAOK1 / Fold change vs veh, TAOK1 / RFU, ACBD3 / Fold change vs veh, ACBD3 / RFU, TMA16 / Fold change vs veh, TMA16 / RFU, RWDD3 / Fold change vs veh, RWDD3 / RFU, BCAT1 / Fold change vs veh, BCAT1 / RFU, EDEM3 / Fold change vs veh, EDEM3 / RFU, TMEM33 / Fold change vs veh, TMEM33 / RFU, WDR75 / Fold change vs veh, WDR75 / RFU, AHCTF1 / Fold change vs veh, AHCTF1 / RFU, TFRC / Fold change vs veh, TFRC / RFU, ZDHHC17 / Fold change vs veh, ZDHHC17 / RFU, NOM1 / Fold change vs veh, NOM1 / RFU, ARL8B / Fold change vs veh, ARL8B / RFU, ZBTB11 / Fold change vs veh, ZBTB11 / RFU, TAMM41 / Fold change vs veh, TAMM41 / RFU, KIAA1704 /// LOC100996395 / Fold change vs veh, KIAA1704 /// LOC100996395 / RFU, ING1 / Fold change vs veh, ING1 / RFU, TRMT61B / Fold change vs veh, TRMT61B / RFU, FUBP3 / Fold change vs veh, FUBP3 / RFU, TP53 / Fold change vs veh, TP53 / RFU, TNKS2 / Fold change vs veh, TNKS2 / RFU, ZFP14 / Fold change vs veh, ZFP14 / RFU, ACTR2 / Fold change vs veh, ACTR2 / RFU, PPP3R1 / Fold change vs veh, PPP3R1 / RFU, PIK3R1 / Fold change vs veh, PIK3R1 / RFU, HNRNPA1 / Fold change vs veh, HNRNPA1 / RFU, RNF170 / Fold change vs veh, RNF170 / RFU, ZNF28 / Fold change vs veh, ZNF28 / RFU, RNGTT / Fold change vs veh, RNGTT / RFU, OGT / Fold change vs veh, OGT / RFU, BRD1 / Fold change vs veh, BRD1 / RFU, MARS / Fold change vs veh, MARS / RFU, ZNF655 / Fold change vs veh, ZNF655 / RFU, FAHD1 / Fold change vs veh, FAHD1 / RFU, BDP1 / Fold change vs veh, BDP1 / RFU, LRRCC1 / Fold change vs veh, LRRCC1 / RFU, ARID1A / Fold change vs veh, ARID1A / RFU, ZNF146 / Fold change vs veh, ZNF146 / RFU, ZNF330 / Fold change vs veh, ZNF330 / RFU, GPN3 / Fold change vs veh, GPN3 / RFU, C9orf123 / Fold change vs veh, C9orf123 / RFU, N4BP2L2 / Fold change vs veh, N4BP2L2 / RFU, ARFIP1 / Fold change vs veh, ARFIP1 / RFU, FAM179B / Fold change vs veh, FAM179B / RFU, BCL10 / Fold change vs veh, BCL10 / RFU, UHRF1BP1L / Fold change vs veh, UHRF1BP1L / RFU, BET1 / Fold change vs veh, BET1 / RFU, CNOT2 / Fold change vs veh, CNOT2 / RFU, ZNF268 / Fold change vs veh, ZNF268 / Fold change vs veh, ZNF507 / RFU, DGCR2 / Fold change vs veh, DGCR2 / RFU, WDSUB1 / Fold change vs veh, WDSUB1 / Fold change vs veh, HSP90B1 /// MIR3652 / RFU, ADSS / Fold change vs veh, ADSS / RFU, GK / Fold change vs veh, GK / RFU, ZNF148 / Fold change vs veh, ZNF148 / RFU, TAF9 / Fold change vs veh, TAF9 / RFU, SLC1A5 / Fold change vs veh, SLC1A5 / RFU, SLMO2 / Fold change vs veh, SLMO2 / RFU, ABCC4 / Fold change vs veh, ABCC4 / RFU, LOC101060439 /// RAP1B / Fold change vs veh, LOC101060439 /// RAP1B / RFU, RFX7 / Fold change vs veh, RFX7 / RFU, GTPBP10 / Fold change vs veh, GTPBP10 / RFU, CNEP1R1 / Fold change vs veh, CNEP1R1 / RFU, BIVM-ERCC5 /// ERCC5 / Fold change vs veh, BIVM-ERCC5 /// ERCC5 / RFU, ILF3 / Fold change vs veh, ILF3 / RFU 11762660_at / Fold change /veh 11762660_at / RFU VCAN (11757783_s_at) / Fold change /veh VCAN (11757783_s_at) / RFU DDX43 (11728927_at) / Fold change /veh DDX43 (11728927_at) / RFU KRT8 (11758188_x_at) / Fold change /veh KRT8 (11758188_x_at) / RFU NKD1 (11759106_at) / Fold change /veh NKD1 (11759106_at) / RFU SRD5A1 (11742802_a_at) / Fold change /veh SRD5A1 (11742802_a_at) / RFU TPSAB1 /// TPSB2 (11721975_s_at) / Fold change /veh TPSAB1 /// TPSB2 (11721975_s_at) / RFU GSTM3 (11746129_a_at) / Fold change /veh GSTM3 (11746129_a_at) / RFU IL23R (11737362_x_at) / Fold change /veh IL23R (11737362_x_at) / RFU TMEM51 (11727254_a_at) / Fold change /veh TMEM51 (11727254_a_at) / RFU PIWIL2 (11732686_x_at) / Fold change /veh PIWIL2 (11732686_x_at) / RFU ORM1 (11744905_x_at) / Fold change /veh ORM1 (11744905_x_at) / RFU CCDC152 (11743942_at) / Fold change /veh CCDC152 (11743942_at) / RFU ECM1 (11717891_a_at) / Fold change /veh ECM1 (11717891_a_at) / RFU IL23R (11748794_a_at) / Fold change /veh IL23R (11748794_a_at) / RFU TNFAIP8L3 (11732012_x_at) / Fold change /veh TNFAIP8L3 (11732012_x_at) / RFU MBOAT4 (11741988_at) / Fold change /veh MBOAT4 (11741988_at) / RFU 11764193_at / Fold change /veh 11764193_at / RFU TMEM53 (11763286_at) / Fold change /veh TMEM53 (11763286_at) / RFU MAGEB2 (11727129_at) / Fold change /veh MAGEB2 (11727129_at) / RFU TMEM200A (11744735_a_at) / Fold change /veh TMEM200A (11744735_a_at) / RFU CCDC152 (11751479_a_at) / Fold change /veh CCDC152 (11751479_a_at) / RFU FAM211A (11726209_a_at) / Fold change /veh FAM211A (11726209_a_at) / RFU RGS16 (11746705_a_at) / Fold change /veh RGS16 (11746705_a_at) / RFU VCAN (11755009_s_at) / Fold change /veh VCAN (11755009_s_at) / RFU RHOB (11743442_s_at) / Fold change /veh RHOB (11743442_s_at) / RFU RGS16 (11720943_a_at) / Fold change /veh RGS16 (11720943_a_at) / RFU RGS16 (11720944_at) / Fold change /veh RGS16 (11720944_at) / RFU, VPS4B / Fold change vs veh, VPS4B / RFU, CREB1 / Fold change vs veh, CREB1 / RFU, DNAJC13 / Fold change vs veh, DNAJC13 / RFU, GNAQ / Fold change vs veh, GNAQ / RFU, CDK5R1 / Fold change vs veh, CDK5R1 / RFU, ZRANB3 / Fold change vs veh, ZRANB3 / RFU, CUL4A / Fold change vs veh, CUL4A / RFU, CCNY / Fold change vs veh, CCNY / RFU, UFL1 / Fold change vs veh, UFL1 / RFU, COG3 / Fold change vs veh, COG3 / RFU, DIAPH2 / Fold change vs veh, DIAPH2 / RFU, SKA2 / Fold change vs veh, SKA2 / RFU, AFF3 / Fold change vs veh, AFF3 / RFU, LMF1 / Fold change vs veh, LMF1 / RFU, IPO11 / Fold change vs veh, IPO11 / RFU, DFFB / Fold change vs veh, DFFB / RFU, FOXP1 / Fold change vs veh, FOXP1 / RFU, CARD8 / Fold change vs veh, CARD8 / RFU, STRN3 / Fold change vs veh, STRN3 / RFU, ADK / Fold change vs veh, ADK / RFU, RASSF2 / Fold change vs veh, RASSF2 / RFU, WIPF1 / Fold change vs veh, WIPF1 / RFU, LARP1B / Fold change vs veh, LARP1B / RFU, RASA1 / Fold change vs veh, RASA1 / RFU, RB1 / Fold change vs veh, RB1 / RFU, PPFIA1 / Fold change vs veh, PPFIA1 / RFU, MAT2A / Fold change vs veh, MAT2A / RFU, CCT5 / Fold change vs veh, CCT5 / RFU, WDR92 / Fold change vs veh, WDR92 / RFU, CUX1 / Fold change vs veh, CUX1 / RFU, TTC7A / Fold change vs veh, TTC7A / RFU, TMEM135 / Fold change vs veh, TMEM135 / RFU, DEPTOR / Fold change vs veh, DEPTOR / RFU, CPM / Fold change vs veh, CPM / RFU, DNAJB6 / Fold change vs veh, DNAJB6 / RFU, CACNA2D3 / Fold change vs veh, CACNA2D3 / RFU, DTX4 / Fold change vs veh, DTX4 / RFU, TFCP2 / Fold change vs veh, TFCP2 / RFU, GMCL1 /// GMCL1P1 / Fold change vs veh, GMCL1 /// GMCL1P1 / RFU, AEBP2 / Fold change vs veh, AEBP2 / RFU, SNHG1 /// SNORD22 /// SNORD25 /// SNORD26 /// SNORD27 /// SNORD28 /// SNORD29 /// SNORD31 / Fold change vs veh, SNHG1 /// SNORD22 /// SNORD25 /// SNORD26 /// SNORD27 /// SNORD28 /// SNORD29 /// SNORD31 / Fold change (Aza/veh), C12orf56 (ProbeSet 11735607_a_at) / Fold change (ACY-1035/veh), C12orf56 (ProbeSet 11735607_a_at) / Fold change (Aza/veh), FGFR1OP (ProbeSet 11751329_s_at) / Fold change (ACY-1035/veh), FGFR1OP (ProbeSet 11751329_s_at) / Fold change (Aza/veh), VPS36 (ProbeSet 11739960_a_at) / Fold change (ACY-1035/veh), VPS36 (ProbeSet 11739960_a_at) / RFU SYPL1 (11715823_x_at) / Fold change /veh SYPL1 (11715823_x_at) / RFU IGFBP7 (11715501_s_at) / Fold change /veh IGFBP7 (11715501_s_at) / RFU REEP3 (11722064_at) / Fold change /veh REEP3 (11722064_at) / RFU IGLL1 (11728026_x_at) / Fold change /veh IGLL1 (11728026_x_at): dose or concentration left out as unconfirmed
Settings: MV-4-11 cells, 48 hours

Nc1ncn([C@@H]2O[C@H](CO)[C@@H](O)[C@H]2O)c(=O)n1 [azacitidine]
Fold change /veh MBOAT4 (11741988_at): 1.51
